Values joined by “and” are separate entries in the source; they are usually repeats but may differ in a detail not shown here. Equal entries are not always repeated. Where two headings read alike, the source gives them in different places. Marks after values point to notes of the source that are not given here.
Assays:
[1] = tested on: CYP3A4 (MDZ), CYP1A2 (PH); test: in vitro; conditions: human, pH 7.4; for microsomal CLint: microsomes
Description: (§1) A 1.15% KCl solution was made in HPLC grade water and stored at 4°C. HLM (20 mg/ml in 250 mM sucrose) were diluted in 1.15% KCl to achieve a final protein concentration of 0.1; 0.25; 0.5; 0.75 and 1 mg/ml in the samples. The stop reagent was made with 300 μl FA, 5,500 μl ACN and Ultrapure water and contained the internal standards (IS; 0.072 μM of CHL and 0.12 μg/ml of ZAN).
(§2) Samples were prepared partially based on [Schelstraete et al. (2019a],[b)]. […] Next, 50 μl of a freshly prepared NADPH.4Na solution was added. After an incubation of 3 min, 50 μl of diluted HLM was added and they were placed back on the thermoshaker TS-100 (Biosan, Geraardsbergen, Belgium) with a rotation speed of 300 rpm and at a temperature of 37°C. After the indicated time (i.e., 5, 10, 20, 30 and 45 min), 25 μl of an ice cold stop reagent with IS, i.e., CHL for CYP probes and ZAN for AFB1, was added. For protein precipitation, 125 μl of TFA was added. Samples were centrifuged at 16,000×g for 20 min at 4°C. The centrifugal filters were discarded and the supernatant was added to 1 ml of a 0.2 M phosphate buffer. Next, 7 ml of ethyl acetate was added in order to perform a liquid–liquid extraction (LLE). Samples were extracted during 20 min on an Agitelec shaker at room temperature. For phase separation, samples were centrifuged at 2,000× g for 10 min. Subsequently, the organic phase was transferred in glass tubes and evaporated under a gentle nitrogen stream at 40°C (±5°C) using a Turbovap (Biotage, Charlotte, United States). After evaporation, samples were kept at −20°C until further analysis. Upon analysis, 250 μl of a 60/40 mobile phase A (MP A; H2O/MeOH/acetic acid (94/5/1, v/v/v) + 5 mM ammonium acetate)/mobile phase B (MP B; H2O/MeOH/acetic acid (2/97/1, v/v/v) + 5 mM ammonium acetate) mixture was added. After thorough vortexing and centrifuging for 10 min at 1,000× g, the samples were transferred to an autosampler vial. An aliquot of 5 μl was injected into the ultrahigh performance liquid chromatography (UPLC) - XEVO TQ-S (LC–MS/MS) equipment using an in-house developed and validated method.
(§3) A Waters Acquity class I UPLC system coupled to a XEVO TQ-S tandem quadrupole mass spectrometer (MS) from Waters (Milford, MA, United States) was used for the detection and quantification. A Charged Surface Hybrid (CSH) C18 column (1.7 μm 2.1 × 100 mm) with Guard column was used for chromatographic separation. The column temperature was set at 30°C; the sample temperature at 10°C. The MP was used at a flow rate of 0.250 ml/min following a gradient program (Table 1). The total duration for a single run was 12 min. The MS was operated in the electrospray positive mode (ESI+) with multiple reaction monitoring (MRM). Source temperature and desolvation temperature were set at 130°C and 200°C. The cone gas flow was set at 150 L/h, the desolvation gas flow at 550 L/h. Data was processed using Masslynx® and Targetlynx® software from Micromass (Manchester, United Kingdom). Data analysis was performed by transferring Targetlynx® data to Microsoft Excel and Sigmaplot version 14.5. For AFB1, substrate depletion was measured. Nonlinear regression on sigmoidal plots where the initial depletion rate (kdep) was plotted against AFB1 concentrations on a linear-log plot, was performed using Excel Solver ([Youdim and Dodia, 2010]).
(§4) Substrate work solutions of AFB1 were made to achieve sample concentrations from 0.5 μM to 50 μM, for the HLM experiments. For rhCYP an extra AFB1 sample concentration of 100 μM was implemented. HLM (20 mg/ml in 250 mM sucrose) were diluted in 1.15% KCl to achieve a final protein concentration of 0.25 and 0.5 mg/ml in the samples, as based on previous linearity experiments. The stop reagents were those described in 2.1.2.
(§5) For CYP3A4 rhCYP experiments, 50 μl of diluted supersomes at 150 pmol/ml were used instead of HLM, achieving a final concentration of 30 pmol/ml.

[2] = tested on: pooled human liver microsomes; test: in vitro
Description: as §1, §2, §3, §4, §5

human liver microsomes [3] = conditions: cited from earlier work
CYP3A4 [4] = molecular target: CYP3A4 (Homo sapiens, UniProt P08684); test: in vitro
Sequence of CYP3A4 (Homo sapiens, UniProt P08684) (P08684 2-503): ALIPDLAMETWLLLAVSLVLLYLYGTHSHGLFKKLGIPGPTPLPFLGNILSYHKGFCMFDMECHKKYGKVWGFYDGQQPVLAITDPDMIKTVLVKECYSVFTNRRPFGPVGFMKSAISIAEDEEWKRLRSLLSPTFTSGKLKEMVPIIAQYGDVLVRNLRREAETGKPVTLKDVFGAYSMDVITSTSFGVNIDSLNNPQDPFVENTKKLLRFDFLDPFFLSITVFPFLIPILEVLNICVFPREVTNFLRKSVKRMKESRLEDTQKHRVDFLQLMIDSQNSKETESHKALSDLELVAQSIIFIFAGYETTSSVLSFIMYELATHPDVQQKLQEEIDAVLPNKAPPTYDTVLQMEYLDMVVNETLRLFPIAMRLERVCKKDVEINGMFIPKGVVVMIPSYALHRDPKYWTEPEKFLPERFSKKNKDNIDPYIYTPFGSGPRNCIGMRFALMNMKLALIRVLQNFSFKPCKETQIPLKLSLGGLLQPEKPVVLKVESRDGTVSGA
Description: as §4
(§6) For CYP3A4 rhCYP experiments, 50 μl of diluted supersomes at 150 pmol/ml were used instead of HLM, achieving a final concentration of 30 pmol/ml. For CYP1A2 rhCYP experiments, 50 μl of diluted EasyCYP LR bactosomes at 50 pmol/ml were used, achieving a final concentration of 10 pmol/ml.
(§7) The same equipment, settings and procedures were used as explained in Section “LC–MS/MS (linearity experiments).” Data analysis was performed by transferring Targetlynx® data to Microsoft® Excel. Metabolite formation velocity versus substrate concentration figures were plotted with error bars, Sigmaplot version 14.5 was used for determining the Michaelis–Menten constant (Km) and maximum velocity (Vmax) by performing nonlinear regression on the figures. For AFB1 substrate depletion was measured. Nonlinear regression on sigmoidal plots, where the initial depletion rate (kdep) was plotted against AFB1 concentrations on a linear-log plot, was performed using Excel Solver ([Youdim and Dodia, 2010]).
(§8) The CLH,u,int is multiplied by the AAF, leading to an AAF corrected CLH,u,int (CLH,u,int,AAF). The obtained Km and Vmax values of the CYP probes from rhCYPs were used to calculate intersystem extrapolation factors (ISEFs) for both Vmax and CLint (Equations 7 and 8).
(§9) (7) VmaxISEF=Vmax,HLM/Vmax,rhCYP∗CYPabundancepmolP450/mg
(§10) (8) CLintISEF=Vmax,HLM/Km,HLM∗10^−6/Vmax,rhCYP/Km,rhCYP∗10^−6∗CYPabundancepmolP450/mg
(§11) CLH,u,int,AAF values of AFB1 from rhCYP experiments were multiplied with the CLint ISEF, resulting in an ISEF corrected CLH,u,int,AAF (CLH,u,int,AAF,ISEF). […] Equation 10 presents the extrapolation to the whole liver hepatic blood clearance from rhCYP experiments. The hepatic blood clearance (CLH,B) was multiplied by the blood/plasma ratio (B:P) to obtain the whole liver hepatic plasma clearance, CLH,P.
(§12) (10) CLH,BL/h=QH∗fu,b∗CLH,u,int,AAF,ISEF/QH+fu,b∗CLH,u,int,AAF,ISEF
(§13) Next, Km and Vmax experiments were performed in recombinant enzyme systems. […] For AFB1, where substrate depletion was analyzed, kdep was determined for different substrate concentrations in supersomes and bactosomes which was plotted against AFB1 substrate concentrations on a log-scale (Figures 3E,F). By dividing the theoretical maximal kdep by the protein concentration, the CLint was achieved from which the Vmax could be determined ([Youdim and Dodia, 2010]).

[5] = cited from earlier work
[6] = human, microsomes
human liver microsomes [7] = test: AFB1 inhibition assays in HLM, both contributions combined; type: in vitro ADME
CYP1A2 [8] = molecular target: T1, CYP1A2 (Homo sapiens, UniProt P05177); test: AFB1 inhibition assay in HLM with α-naphthoflavone; type: in vitro ADME; parameters: tissue Corning; host or cells: human liver microsomes, UltraPool HLM 150, mixed gender
T1 sequence (P05177 whole entry): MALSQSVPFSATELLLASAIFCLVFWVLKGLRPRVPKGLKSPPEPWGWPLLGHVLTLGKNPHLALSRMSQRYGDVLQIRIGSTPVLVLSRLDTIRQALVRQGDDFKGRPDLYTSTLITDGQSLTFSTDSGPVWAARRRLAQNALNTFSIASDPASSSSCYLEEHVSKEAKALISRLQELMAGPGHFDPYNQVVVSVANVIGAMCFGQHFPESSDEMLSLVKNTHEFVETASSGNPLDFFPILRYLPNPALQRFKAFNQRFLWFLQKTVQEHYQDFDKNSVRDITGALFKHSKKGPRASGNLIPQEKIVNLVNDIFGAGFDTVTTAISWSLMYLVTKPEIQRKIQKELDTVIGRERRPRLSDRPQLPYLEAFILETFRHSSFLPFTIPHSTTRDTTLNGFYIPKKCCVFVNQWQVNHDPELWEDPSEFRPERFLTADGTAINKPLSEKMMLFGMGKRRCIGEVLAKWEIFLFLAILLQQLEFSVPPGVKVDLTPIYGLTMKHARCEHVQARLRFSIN

[9] = cited from earlier work; remark: listed apart in the source
CYP3A7 = conditions: cited from earlier work
CYP1A2 [10] = molecular target: T1, CYP1A2
Description: as §4, §6, §7, §8, §9, §10, §11, §12, §13

CYP3A5 = conditions: cited from earlier work
CYP1A2 [11] = molecular target: T1, CYP1A2; parameters: tissue Corning; host or cells: human liver microsomes, UltraPool HLM 150, mixed gender; conditions: cited from earlier work
CYP3A4/3A5 = type: in vitro ADME, human
CYP3A4 [12] = conditions: cited from earlier work
[13] = HLM pool of 16.0 donors, ref Kazmi, 2015

Cc1ncc2n1-c1ccc(Cl)cc1C(c1ccccc1F)=NC2 [MDZ, midazolam, reference compound]
microsomal CLint [1]: 445 µL/min/mg | Km [1]: 2.15 µM | CLH,B calculated (hepatic blood clearance, AAF corrected) ([2]; human, pH 7.4): 44.1 L/h | CLH,p calculated (hepatic plasma clearance) ([2]; human, pH 7.4): 26.6 L/h | CLH,u,int (whole liver) ([2]; human, pH 7.4): 1,941 L/h | calculated CLH,B compared to literature ([2]; human, pH 7.4): ≤ 1.00 fold | CLH,u,int (whole liver) (human liver microsomes [3]): 2,700 L/h | Km (CYP3A4 [4]; human): 3.2 µM | Vmax (CYP3A4 [4]; human, pH 7.4): 14.1 pmol/min/pmol P450 | CLH,p literature ([5]; ref Persson et al. (1987)): 29.0 L/h^d | fraction unbound [6]: 0.907

aflatoxin B1 [AFB1]
contribution ascribed to other enzymes, expectedly CYP2A13 (human liver microsomes [7]): 6.0% | sum of CYP3A4/5 and CYP1A2 contributions (human liver microsomes [7]): 94% | CYP1A2 contribution to AFB1 metabolism (CYP1A2 [8]): 49% | fu,B (free fraction in blood) [9]: 0.160^b | CLH,B calculated (hepatic blood clearance, AAF corrected), CYP3A4 [2]: 40.0 L/h and 40.0^CYP3A4 L/h | CLH,p calculated, CYP1A2 [2]: 39.6 L/h | CLH,p calculated, CYP3A4 [2]: 41.2 L/h | CLH,u,int (whole liver) [2]: 1,190 L/h | CLH,u,int (whole liver), CYP1A2 [2]: 583^CYP1A2 L/h | CLH,u,int (whole liver), CYP3A4 [2]: 535^CYP3A4 L/h | CLH,u,int,AAF [2]: 450^CYP3A4 L/h and 420^CYP1A2 L/h | Km [2]: 40.9 µM | CLint,in vitro ([2]; human): 282 µL/min/mg | Vmax (AFBO or AFQ1 formation), range (human liver microsomes [3]): 236–11,281 pmol/(mg.min) | Km (human liver microsomes [3]; read-out: Km (AFBO or AFQ1 formation), range): 90 to 1720 µM | CYP3A7 contribution (CYP3A7): 5–7% | CLH,B calculated (hepatic blood clearance, ISEF and AAF corrected) (CYP1A2 [10]): 56.1 L/h | CLH,B from EasyCYP bactosomes relative to CLH,B from HLM (CYP1A2) (CYP1A2 [10]): 1.46 fold | CLH,p calculated (CYP1A2 [10]): 57.8 L/h | CLH,u,int (CYP1A2 [10]): 1,295 L/h | CLH,u,int,AAF (CYP1A2 [10]): 932 L/h | Km (CYP1A2 [10]): 58.2 µM | Vmax,ISEF (CYP1A2 [10]): 14.7 nmol/mg/min | CLH,B calculated (hepatic blood clearance, ISEF and AAF corrected) (CYP3A4 [4]): 47.7 L/h | CLH,B from supersomes relative to CLH,B from HLM (CYP3A4) (CYP3A4 [4]): 1.19 fold | CLH,p calculated (CYP3A4 [4]): 49.1 L/h | CLH,u,int (CYP3A4 [4]): 755 L/h | CLH,u,int,AAF (CYP3A4 [4]): 634 L/h | Km (CYP3A4 [4]): 49.6 µM | Vmax,ISEF (CYP3A4 [4]): 5.97 nmol/mg/min | Vmax,ISEF (ISEF corrected Vmax) (CYP3A4 [4]): 43.6 pmol/min/pmol P450 | CYP3A5 contribution (CYP3A5): 4–15% | CYP1A2 contribution (CYP1A2 [11]): 1–5% | contribution of CYP1A2 (CYP1A2 [11]): 95% | Km (CYP1A2 [11]; read-out: Km for the AFBO formation via CYP1A2): 41 µM | Km (CYP1A2 [11]; read-out: Km for the AFM1 formation via CYP1A2): 29 µM | CYP3A4/5 contribution to AFB1 metabolism (CYP3A4/3A5): 45% | CYP3A4 contribution (CYP3A4 [12]): 79–95% | Km (CYP3A4 [12]; read-out: Km for the AFBO formation via CYP3A4): 133 µM | Km (CYP3A4 [12]; read-out: Km for the AFM1 formation via CYP3A4): 139 µM

CCOc1ccc(NC(C)=O)cc1 [PH, phenacetin, reference compound]
microsomal CLint [1]: 21.4 µL/min/mg | Km [1]: 40 µM | CLH,p calculated (hepatic plasma clearance) ([2]; HLM, probe substrates, CLH,B x B:P): 21.9 L/h | CLH,B calculated (hepatic blood clearance, AAF corrected) ([2]; HLM, probe substrates, QH 90 L/h, Equation 9): 21.7 L/h | calculated CLH,B compared to literature ([2]; HLM, MDZ vs Kazmi, 2015, PH vs Shibata et al., 2002): ≤ 1.04 fold | CLH,u,int (whole liver) ([2]; HLM, MPPGL 40 mg/g, LW 1,650 g, Equation 4): 84.74 L/h | CLH,u,int (whole liver) (human liver microsomes [3]; [13]): 92.00 L/h | CLint,in vitro (human liver microsomes [3]; [13]): 23.3 µL/min/mg | CLint,in vitro (human liver microsomes [3]; HLM pool of 105 donors, ref Gao et al., 2017): 14.5 µL/min/mg | Km (human liver microsomes [3]): 10 to 62 µM | Vmax (CYP1A2 [10]; CYP1A2 bactosomes): 11.6 pmol/min/pmol P450 | CLH,B literature (in vivo human hepatic blood clearance) ([5]; ref Shibata et al. (2002)): 20.8 L/h

— paper PMC9469084, “Unravelling the pharmacokinetics of aflatoxin B1: In vitro determination of Michaelis–Menten constants, intrinsic clearance and the metabolic contribution of CYP1A2 and CYP3A4 in pooled human liver microsomes” (Frontiers in Microbiology, 2022)
